# In publication PMC8583849 (International Journal of Molecular Sciences, 2021):
# pEC50, pIC50: −log10 of the molar value. Read-outs that look alike come from different tables or passages of the source. Peptide text beside a SMILES is read from it. * marks the point of attachment. Cbz = O=C(OCc1ccccc1)*
# Legend:
# Cathepsin-L [1] = test system: Cathepsin-L; design: method as in https://www.apexbt.com/e-64.html; settings: ref https://www.apexbt.com/e-64.html; read-out: IC50, Cathepsin-L inhibition, literature value; cited from earlier work
# Cathepsin-L [2] = target: T1, Cathepsin-L (Homo sapiens, UniProt P07711); assay: Cathepsin-L Inhibitor Screening Kit (Fluorometric); assay type: biochemical; settings: for pIC50: Cathepsin-L 0.01 ng/μL, substrate 5 μM, 30 min incubation at RT; for HillSlope, Cathepsin-L inhibition / LogIC50, Cathepsin-L inhibition / IC50: fit values given in Figure 6
# T1 construct: purchased BPS Bioscience 79591
# T1 sequence (P07711 114-333): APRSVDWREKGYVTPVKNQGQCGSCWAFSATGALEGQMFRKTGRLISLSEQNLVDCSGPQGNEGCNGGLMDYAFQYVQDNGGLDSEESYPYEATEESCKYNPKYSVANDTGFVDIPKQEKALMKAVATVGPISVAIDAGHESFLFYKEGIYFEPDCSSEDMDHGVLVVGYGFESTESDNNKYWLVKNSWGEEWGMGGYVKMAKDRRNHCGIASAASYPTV
# Method: The effect of MG-132 on Cathepsin-L activity was measured using the Cathepsin-L Inhibitor Screening Kit (Fluorometric) (BPS Bioscience #79591, San Diego, CA, USA). The assay is based on the Cathepsin-L mediated cleavage of a synthetic fluorogenic substrate. Generated AFC is measured on a fluorescence microplate reader. The assay was performed according to the manufacturer protocol but adapted to 384-well format with a final volume of 10 μL. Briefly, compounds (stock in 100% v/v DMSO) are transferred in black 384-well microplates by acoustic dispensing (Echo, Labcyte, Beckman Coulter); 5 µL of diluted Cathepsin-L is added and incubated for 30 min at RT. The enzymatic reaction is initiated by the addition of 5 µL of the substrate. The fluorescence signal is detected in a kinetic mode for 15 min at 37 °C using Ex/Em = […] (Envision, PerkinElmer). Final assay concentrations were: Cathepsin-L 0.01 ng/μL, substrate 5 μM. E-64 provided in the kit was used as a positive control for Cathepsin-L inhibition and assay validation. DMSO was used as compound solvent control (0% inhibition).
# [3] = test system: SARS-CoV-2 strain BetaCov/Belgium/GHB-03021/2020; design: method as in PMID 35287429; settings: Vero-E6 cells infected by SARS-CoV-2; read-out: EC50, reduction of viral RNA (qPCR); cited from earlier work
# [4] = test system: T2, SARS-CoV-2 protease PLpro; assay: Activity towards PLpro; assay type: biochemical; settings: paper in preparation
# T2 construct: the papain-like protease (PLpro; nsp3)
# Description: Knowing the role of MG-132 in inhibition of the proteasome and representatives of Cathepsin and Calpain proteases, we investigated its role in the inhibition of Cathepsin-L, one of the key enzymes needed for the entry of SARS-CoV-2. Previously, we reported the anti-cytopathic activity of MG-132 in SARS-CoV-2 infected Vero-E cells [see CHEMBL Entry https://www.ebi.ac.uk/chembl/document_report_card/CHEMBL4495565/, accessed on 28 October 2021]. The results were confirmed by different groups reporting antiviral activity also in other cell lines like Huh-7 and Calu-3 all with sub-micromolar EC50 [39]. If we compare the antiviral activity in cells to the high IC50 measured against Mpro it is reasonable to assume that the effect on Mpro is probably too low to justify submicromolar cell activity, and thus it is supported by inhibition of host proteases. We have measured no activity towards the second SARS-CoV-2 protease PLpro (paper in preparation).
# [5] = test system: SARS-CoV-2 main protease (Mpro); design: method as in PMID 35287429; settings: read-out: IC50 in the Mpro enzymatic assay, cited from earlier work
# SARS-CoV-2 in Calu-3 = test system: SARS-CoV-2 in Calu-3; design: method as in PMID 33811811; settings: Calu-3 cells; cited from earlier work
# [6] = test system: rat liver isolated Cathepsin-L; design: method as in PMID 18830882; settings: cited from earlier work
# Mpro = assay: Thermostability assay (TSA); assay type: binding, SARS-CoV-2; settings: 1 μM protein, normalized with DMSO
# Method: A reaction mixture containing the protein at 1 μM final concentration and increasing molar excesses of MG-132 (1×, 3×, 10×, 20×, and 50×) was tested. In each well: 20 μL of buffer 5×, 2 μL of protein stock, the volume of MG-132 stock needed for the fixed molar excess, and Milli-Q H2O to reach 99 μL was added. The protein was left in incubation with the compound for 30 min at room temperature. The plate was put on ice, and 1 μL of 500 × SYPRO orange (Thermo Fischer Scientific) was added in each well. The plate was sealed and centrifuged at 200× g and 4 °C for 1 min. The melting curves were measured in a RT-PCR (Eppendorf, Milan, Italy). After a stationary phase of 2 min at 25 °C, the temperature was increased by 0.5 °C every 30 s until the maximum of 95 °C was reached. Fluorescence has been measured at each step. Each condition has been reproduced in tripled. The Tm control with the protein and the equivalent volume of DMSO only was assessed as well.
# SARS-CoV-2 in Huh-7 = test system: SARS-CoV-2 in Huh-7; design: method as in PMID 33811811; settings: Huh-7 cells; cited from earlier work
Structure (SMILES),pIC50 (Cathepsin-L [1]),"pIC50 (Cathepsin-L [2]; read-out: IC50, Cathepsin-L inhibition)","HillSlope, Cathepsin-L inhibition (Cathepsin-L [2])","LogIC50, Cathepsin-L inhibition (Cathepsin-L [2])","IC50 (Cathepsin-L [2]; read-out: IC50 (M), Cathepsin-L inhibition) [M]",pEC50 [3],activity towards PLpro [4],pIC50 [5],pIC50 ([5]; with 1 mM DTT),"EC50, antiviral activity (SARS-CoV-2 in Calu-3)","IC50 (Cathepsin-L [2]; IC50 (M), Cathepsin-L inhibition) [M]","pIC50 (Cathepsin-L [2]; IC50, Cathepsin-L inhibition)",pEC50 [6],ΔTm (Mpro; 50 molar excess of inhibitor) [°C],ΔTm (Mpro; one molar excess of inhibitor) [°C],"EC50, antiviral activity (SARS-CoV-2 in Huh-7)"
CC(C)C[C@H](NC(=O)[C@H]1O[C@@H]1C(=O)O)C(=O)NCCCCN=C(N)N [E64],8.60,8.57,-2.040,-8.560,2.75e-09,,,,,,,,,,,
CC(C)C[C@@H](C=O)NC(=O)[C@H](CC(C)C)NC(=O)[C@H](CC(C)C)NC(=O)OCc1ccccc1 [MG-132] (Cbz-Leu-Leu-Leu-aldehyde),,,-1.826,-9.811,,7.00,no activity,5.13,5.33,sub-micromolar,1.55e-10,9.82,6.79,3.5,0.5,sub-micromolar
